Experimental data taken from PubChem BioAssay AID1996.
Converted amounts (≈) assume the structure as drawn.

Conditions: buffer; pH 7.4; 200.0 µM

Question: Which solubility kinetic does the source give for `Cc1ccc(Nc2cc(C)nc3ccccc23)c(C)c1` here?
Answer: The solubility kinetic was greater than 39.4 µg/mL.

Question: Which solubility kinetic does the source give for `CN1CCN(c2ccc(Cl)cc2NC(=O)/C=C/c2ccc(F)cc2)CC1` here?
Answer: The solubility kinetic was 38.4 µg/mL (≈ 103 µM).

Question: For `CN(Cc1nc2ccccc2n1C)c1ccccc1`, which solubility kinetic is on record?
Answer: Its solubility kinetic is greater than 37.7 µg/mL.

Question: For `N#CCC(=O)Nc1ccc(C(=O)OCC(=O)c2c[nH]c3ccccc23)cc1`, which solubility kinetic is on record?
Answer: The solubility kinetic was 4.7 µg/mL (≈ 13 µM).

Question: With `COC(=O)c1scc(S(=O)(=O)C(C)(C)C)c1N` as the compound, how does the solubility kinetic read?
Answer: The solubility kinetic was 26 µg/mL (≈ 93.7 µM).

Question: For `CCC(NC(C)C)C(O)c1ccc(O)c(O)c1.CS(=O)(=O)O` (centres undefined), which solubility kinetic is on record?
Answer: Its solubility kinetic is greater than 50.3 µg/mL.

Question: For `COc1cc2c(cc1NC(=O)CCC(=O)O)oc1ccccc12`, which solubility kinetic is on record?
Answer: Its solubility kinetic is 46.7 µg/mL (≈ 149 µM).

Question: Which solubility kinetic does the source give for `Cc1ccc(C(=O)Nc2ccccc2N2CCCCC2)o1` here?
Answer: The solubility kinetic was 2.8 µg/mL (≈ 9.85 µM).

Question: For `O=C(O)c1ccccc1S(=O)(=O)CC(=O)N1CCCCC1`, which solubility kinetic is on record?
Answer: The solubility kinetic was greater than 46.7 µg/mL.

Question: Which solubility kinetic does the source give for `CC(C)(CN1CCCC1)NS(=O)(=O)c1ccccc1.Cl` here?
Answer: Its solubility kinetic is greater than 47.8 µg/mL.

Question: Which solubility kinetic does the source give for `CCn1cnc2c1c(=O)n(CC(=O)O)c(=O)n2Cc1ccccc1` here?
Answer: Its solubility kinetic is greater than 49.2 µg/mL.

Question: For `CNS(=O)(=O)c1ccc(NC(=O)c2csc(C)c2)cc1`, which solubility kinetic is on record?
Answer: Its solubility kinetic is 6.9 µg/mL (≈ 22.2 µM).

Question: Which solubility kinetic does the source give for `CCc1cccc(CC)c1NC(=O)CN1CCc2cc(OC)c(OC)cc2C1` here?
Answer: The solubility kinetic was 38.8 µg/mL (≈ 101 µM).

Question: With `CCN1CCN(C(=O)CN2C(=O)COc3ccc(C)cc32)CC1` as the compound, how does the solubility kinetic read?
Answer: The solubility kinetic was greater than 47.6 µg/mL.

Question: With `COC(=O)CCC(=O)NNC(=O)Cc1ccccc1` as the compound, how does the solubility kinetic read?
Answer: Its solubility kinetic is greater than 39.6 µg/mL.

Question: With `CCc1nnc(SCC(=O)NC2CC2)n1CC` as the compound, how does the solubility kinetic read?
Answer: The solubility kinetic was greater than 38.2 µg/mL.

Question: With `CN1CCC(N(C)C(=O)Cc2ccccc2[N+](=O)[O-])CC1` as the compound, how does the solubility kinetic read?
Answer: The solubility kinetic was greater than 43.7 µg/mL.

Question: Which solubility kinetic does the source give for `O=S(=O)(c1cccc(F)c1)N1CCN(c2nc(-c3cccnc3)nc3ccccc23)CC1` here?
Answer: The solubility kinetic was 1.2 µg/mL (≈ 2.67 µM).

Question: Which solubility kinetic does the source give for `Cc1cc(=O)oc2cc(NC(=O)c3cccc(F)c3)ccc12` here?
Answer: Its solubility kinetic is less than 0.6 µg/mL.

Question: With `Fc1ccccc1CNC(=S)NC1CCCCC1` as the compound, how does the solubility kinetic read?
Answer: The solubility kinetic was greater than 40 µg/mL.

Question: Which solubility kinetic does the source give for `O=C1CN(C(=O)c2ccc(Cl)c([N+](=O)[O-])c2)c2ccccc2N1` here?
Answer: The solubility kinetic was greater than 49.8 µg/mL.

Question: With `CC(C)CC1(C)NC(=O)N(CC(=O)Nc2ccc3c(c2)CCC3)C1=O` (centres undefined) as the compound, how does the solubility kinetic read?
Answer: The solubility kinetic was greater than 51.5 µg/mL.

Question: For `CC1CCN(Cc2nc(-c3ccc(Cl)cc3)no2)CC1`, which solubility kinetic is on record?
Answer: Its solubility kinetic is 2.2 µg/mL (≈ 7.54 µM).

Question: Which solubility kinetic does the source give for `COc1cccc(CNCCc2ccc3c(c2)OCO3)c1OC.O=C(O)C(=O)O` here?
Answer: The solubility kinetic was greater than 60.8 µg/mL.

Question: Which solubility kinetic does the source give for `C=CCOc1ccc(/C=C2\SC(=S)N(CCC(=O)O)C2=O)cc1` here?
Answer: The solubility kinetic was 48 µg/mL (≈ 137 µM).

Question: With `CCOc1ccccc1CNC(c1ccccc1)c1ccccc1.Cl` as the compound, how does the solubility kinetic read?
Answer: The solubility kinetic was 1.4 µg/mL.

Question: For `CC(C)NCC(O)COc1cccc2[nH]ccc12` (centres undefined), which solubility kinetic is on record?
Answer: The solubility kinetic was greater than 37.2 µg/mL.

Question: Which solubility kinetic does the source give for `CCC(=O)OCCNc1nc(-c2ccccc2)nc2ccccc12.Cl` here?
Answer: Its solubility kinetic is 5.3 µg/mL.

Question: With `COC(=O)C1=C(C)NC(=O)NC1c1ccc2ccccc2c1` (centres undefined) as the compound, how does the solubility kinetic read?
Answer: The solubility kinetic was less than 0.3 µg/mL.

Question: With `Cc1ccc(C(=O)OCc2nc3ccsc3c(=O)[nH]2)o1` as the compound, how does the solubility kinetic read?
Answer: The solubility kinetic was greater than 43.5 µg/mL.

Question: For `CC(=O)Nc1ccc(-c2nc3ccc(NC(C)=O)cc3o2)cc1`, which solubility kinetic is on record?
Answer: Its solubility kinetic is 2.2 µg/mL (≈ 7.11 µM).

Question: With `O=c1oc2c(-c3ccc([N+](=O)[O-])cc3)cc(O)cc2s1` as the compound, how does the solubility kinetic read?
Answer: The solubility kinetic was less than 0.6 µg/mL.

Question: With `COCc1nc2ccccc2n1CCc1ccccc1` as the compound, how does the solubility kinetic read?
Answer: Its solubility kinetic is greater than 40 µg/mL.

Question: Which solubility kinetic does the source give for `C[n+]1cccc(C(=O)Nc2ccccc2)c1.[Cl-]` here?
Answer: Its solubility kinetic is 30 µg/mL.

Question: Which solubility kinetic does the source give for `CCOc1ncccc1C(=O)OCc1cccc([N+](=O)[O-])c1` here?
Answer: The solubility kinetic was 0.5 µg/mL (≈ 1.65 µM).

Question: With `CN1C(=O)N(C)C(=O)C2(Cc3ccccc3N3CCCC32)C1=O` (centres undefined) as the compound, how does the solubility kinetic read?
Answer: Its solubility kinetic is 46 µg/mL (≈ 147 µM).

Question: With `O=C1CSC(=S)N1` as the compound, how does the solubility kinetic read?
Answer: Its solubility kinetic is greater than 20 µg/mL.

Question: With `CC(C)(C)CC(=O)Nc1ccc(S(=O)(=O)N2CCCC2)cc1` as the compound, how does the solubility kinetic read?
Answer: Its solubility kinetic is greater than 48.7 µg/mL.

Question: With `CC(=O)c1ccc(N=C2SCCCN2C(=O)C2CCCC2)cc1` as the compound, how does the solubility kinetic read?
Answer: The solubility kinetic was 47.5 µg/mL (≈ 144 µM).

Question: With `CC(C)C(=O)N1CCN(c2ccccc2NC(=O)c2ccco2)CC1` as the compound, how does the solubility kinetic read?
Answer: Its solubility kinetic is 48 µg/mL (≈ 141 µM).

Question: For `COc1ccc(C(=O)CC(=O)C(=O)Nc2ccc(C)c(C)c2)cc1`, which solubility kinetic is on record?
Answer: Its solubility kinetic is 12.4 µg/mL (≈ 38.1 µM).

Question: Which solubility kinetic does the source give for `CCn1cc(C=C2C(=O)NC(=O)NC2=O)c2ccccc21` here?
Answer: The solubility kinetic was 1.8 µg/mL (≈ 6.35 µM).

Question: Which solubility kinetic does the source give for `Cc1ccc(Oc2nc3c(c(=O)n(C)c(=O)n3C)n2C)cc1C` here?
Answer: The solubility kinetic was 40 µg/mL (≈ 127 µM).

Question: For `COc1ccc(-n2c(SCC(N)=O)nnc2-c2ccco2)cc1`, which solubility kinetic is on record?
Answer: Its solubility kinetic is greater than 49.6 µg/mL.

Question: With `CCN(CC)Cc1c(O)ccc2c(=O)c(Oc3ccccc3OC)c(C)oc12` as the compound, how does the solubility kinetic read?
Answer: The solubility kinetic was greater than 57.5 µg/mL.

Question: For `CC(C)(C)C(=O)NC(=S)Nc1ccc(C(F)(F)F)cc1`, which solubility kinetic is on record?
Answer: The solubility kinetic was 1.1 µg/mL (≈ 3.61 µM).

Question: Which solubility kinetic does the source give for `O=C(NCCCO)C(=O)Nc1cc2c3c(c1)CCN3C(=O)CC2` here?
Answer: The solubility kinetic was greater than 47.6 µg/mL.

Question: Which solubility kinetic does the source give for `CCOc1ncccc1C(=O)OCC(=O)NCc1cccs1` here?
Answer: Its solubility kinetic is greater than 48.1 µg/mL.

Question: For `CC(=O)Nc1ccc(-c2nc3cc(Cl)ccc3o2)cc1`, which solubility kinetic is on record?
Answer: Its solubility kinetic is less than 0.3 µg/mL.

Question: Which solubility kinetic does the source give for `CN(CC(=O)Nc1ccccc1Cl)C1CCCCC1` here?
Answer: Its solubility kinetic is 14.7 µg/mL (≈ 52.4 µM).

Question: With `CNC(=S)Nc1cccc(C(=O)O)c1` as the compound, how does the solubility kinetic read?
Answer: The solubility kinetic was greater than 31.5 µg/mL.

Question: With `Cc1ccc(NC(=O)C2CCCN2C(=O)OCc2ccccc2)c(C)c1` (centres undefined) as the compound, how does the solubility kinetic read?
Answer: The solubility kinetic was 18.5 µg/mL (≈ 52.5 µM).

Question: With `O=C(O)C1C2CCC(O2)C1C(=O)Nc1ccc(F)c(Cl)c1` (centres undefined) as the compound, how does the solubility kinetic read?
Answer: Its solubility kinetic is greater than 47.1 µg/mL.

Question: For `ClCc1nc2ccccc2c2ccccc12`, which solubility kinetic is on record?
Answer: The solubility kinetic was 3.2 µg/mL (≈ 14.1 µM).

Question: With `Cc1ccsc1C1C(C#N)=C(N)OC2=C1C(=O)CCC2` (centres undefined) as the compound, how does the solubility kinetic read?
Answer: Its solubility kinetic is 41.9 µg/mL (≈ 146 µM).

Question: Which solubility kinetic does the source give for `Cc1cc(C)c(OCCNCc2ccccc2)c(C)c1.O=C(O)C(=O)O` here?
Answer: Its solubility kinetic is 42.5 µg/mL.

Question: For `Cl.O=C(c1cccc(S(=O)(=O)N2CCc3ccccc32)c1)N1CCN(CCO)CC1`, which solubility kinetic is on record?
Answer: The solubility kinetic was greater than 67.8 µg/mL.

Question: With `CC(=O)Nc1ccc(S(=O)(=O)Nc2ccc3ccccc3n2)cc1` as the compound, how does the solubility kinetic read?
Answer: The solubility kinetic was 14.2 µg/mL (≈ 41.6 µM).

Question: Which solubility kinetic does the source give for `CCOc1ccc(S(=O)(=O)NCc2ccc3c(c2)OCO3)cc1` here?
Answer: The solubility kinetic was 10.9 µg/mL (≈ 32.5 µM).
